Assay results taken from patent publication US11911374B2, “Methods and uses for treating cancer” (NELUM CORPORATION, priority 2019, dated 2024).
Where two headings read alike, the source gives them in different places.

Assays:
Smo = details: preclinical pancreatic cancer models; cited from earlier work
Panc163 = Panc163 PDAC subcutaneous xenograft model; type: in vivo, mice; details: Panc 163, nab-paclitaxel 50 mg/kg 1dq4×3, TAK-441 25 mg/kg daily p.o.
Method: (§1) After several dose-finding studies to define the most feasible dose of nab-paclitaxel, a dose of 50 mg/kg 1dq4×3 was used. TAK-441 was selected and administered daily at the recommended dose (25 mg/kg daily p.o.). The study was conducted for 21 days. Based on the tumor volume values on experimental day 21, it was estimated the Tumor Growth Inhibition (TGI) factor as indicated in the Table 1. […] In order to evaluate the histological status of the stroma after treatment, Masson's Trichrome stained slides from Panc 163 and Panc 025 models were analyzed.

JH051 = JH051 PDAC subcutaneous xenograft model; type: in vivo, mice; details: JH 051, nab-paclitaxel 50 mg/kg 1dq4×3, TAK-441 25 mg/kg daily p.o.
Method: After several dose-finding studies to define the most feasible dose of nab-paclitaxel, a dose of 50 mg/kg 1dq4×3 was used. TAK-441 was selected and administered daily at the recommended dose (25 mg/kg daily p.o.). The study was conducted for 21 days. Based on the tumor volume values on experimental day 21, it was estimated the Tumor Growth Inhibition (TGI) factor as indicated in the Table 1.

Panc025 = Panc025 PDAC subcutaneous xenograft model; type: in vivo, mice; details: Panc 025, nab-paclitaxel 50 mg/kg 1dq4×3, TAK-441 25 mg/kg daily p.o.
Method: as §1

human Smo (hSmo) = molecular target: T1, human Smo (hSmo) (Homo sapiens, UniProt Q99835); details: 293T cells overexpressing hSmo; read-out: IC50, inhibition of cyclopamine binding to human Smo; cited from earlier work
T1 construct: expressed in transfected cells; host or cells: 293T cells

[1] = tested on: Gli transcriptional activity; details: Gli-luc NIH3T3 cells; cited from earlier work
Gli1 mRNA = details: MRC5 human embryonic fibroblasts; read-out: IC50, expression of Gli1 mRNA; cited from earlier work
[2] = tested on: medulloblastoma allograft; details: cited from earlier work
[3] = tested on: PAN-04 primary human pancreas xenograft; details: PAN-04 xenograft, cited from earlier work
[4] = tested on: castration-resistant prostate cancer; details: murine castration-resistant prostate cancer models; cited from earlier work
[5] = rats; cited from earlier work
[6] = cited from earlier work
[7] = design: dose or concentration left out as unconfirmed; details: mice; cited from earlier work
[8] = design: dose or concentration left out as unconfirmed; details: rats; cited from earlier work
[9] = design: dose or concentration left out as unconfirmed; details: dogs; cited from earlier work
[10] = design: dose or concentration left out as unconfirmed; details: human beings; cited from earlier work
CYP2C8 = molecular target: T2, CYP2C8 (Homo sapiens, UniProt P10632); details: cited from earlier work
T2 sequence (P10632 1-490): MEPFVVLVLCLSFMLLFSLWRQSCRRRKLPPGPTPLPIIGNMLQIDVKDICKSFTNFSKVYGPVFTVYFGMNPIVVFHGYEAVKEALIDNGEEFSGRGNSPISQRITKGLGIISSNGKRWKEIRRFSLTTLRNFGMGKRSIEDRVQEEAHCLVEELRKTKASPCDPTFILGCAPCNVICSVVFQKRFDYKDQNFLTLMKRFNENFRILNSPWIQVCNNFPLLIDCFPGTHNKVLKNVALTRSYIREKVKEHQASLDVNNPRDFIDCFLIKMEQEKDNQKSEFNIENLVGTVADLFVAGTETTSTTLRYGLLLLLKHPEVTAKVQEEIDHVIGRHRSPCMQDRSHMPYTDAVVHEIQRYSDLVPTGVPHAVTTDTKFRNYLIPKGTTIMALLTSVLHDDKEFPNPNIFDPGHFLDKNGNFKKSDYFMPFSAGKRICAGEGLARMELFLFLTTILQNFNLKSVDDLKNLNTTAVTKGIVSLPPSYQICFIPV

CYP isozymes = details: cited from earlier work
Caco-2 cells = details: cited from earlier work
P-glycoprotein (P-gp) = molecular target: T3, P-glycoprotein (P-gp) (Homo sapiens, UniProt P08183); details: cited from earlier work
T3 construct: endogenous in cells; host or cells: Caco-2 cells

[11] = tested on: human PDE4 phosphodiesterase; design: dose or concentration left out as unconfirmed; details: cited from earlier work
[12] = molecular target: human neurotransmitter dopamine transporter (Homo sapiens, UniProt Q01959); design: dose or concentration left out as unconfirmed; details: cited from earlier work
[13] = rats, cited from earlier work
[14] = dogs, cited from earlier work
[15] = cited from earlier work; remark: listed apart in the source
[16] = exposures exceeding the predicted efficacious concentration

Sequence of human neurotransmitter dopamine transporter (Q01959 whole entry): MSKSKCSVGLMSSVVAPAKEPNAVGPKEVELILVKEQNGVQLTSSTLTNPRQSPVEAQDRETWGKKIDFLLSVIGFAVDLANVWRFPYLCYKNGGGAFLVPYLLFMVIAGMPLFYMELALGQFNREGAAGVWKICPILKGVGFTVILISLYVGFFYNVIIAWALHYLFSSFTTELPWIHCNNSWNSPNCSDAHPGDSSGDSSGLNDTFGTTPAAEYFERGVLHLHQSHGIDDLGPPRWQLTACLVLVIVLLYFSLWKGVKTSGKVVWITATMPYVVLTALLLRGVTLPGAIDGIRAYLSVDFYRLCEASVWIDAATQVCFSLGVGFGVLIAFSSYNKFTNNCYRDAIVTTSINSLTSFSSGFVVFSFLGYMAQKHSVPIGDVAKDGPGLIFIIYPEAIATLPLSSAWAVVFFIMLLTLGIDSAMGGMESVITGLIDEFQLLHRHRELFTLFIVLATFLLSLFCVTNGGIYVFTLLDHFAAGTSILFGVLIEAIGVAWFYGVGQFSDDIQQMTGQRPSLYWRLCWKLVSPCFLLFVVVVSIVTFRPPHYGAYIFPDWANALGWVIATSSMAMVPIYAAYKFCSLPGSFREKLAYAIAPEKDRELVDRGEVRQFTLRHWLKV
T1 sequence (Q99835 28-787): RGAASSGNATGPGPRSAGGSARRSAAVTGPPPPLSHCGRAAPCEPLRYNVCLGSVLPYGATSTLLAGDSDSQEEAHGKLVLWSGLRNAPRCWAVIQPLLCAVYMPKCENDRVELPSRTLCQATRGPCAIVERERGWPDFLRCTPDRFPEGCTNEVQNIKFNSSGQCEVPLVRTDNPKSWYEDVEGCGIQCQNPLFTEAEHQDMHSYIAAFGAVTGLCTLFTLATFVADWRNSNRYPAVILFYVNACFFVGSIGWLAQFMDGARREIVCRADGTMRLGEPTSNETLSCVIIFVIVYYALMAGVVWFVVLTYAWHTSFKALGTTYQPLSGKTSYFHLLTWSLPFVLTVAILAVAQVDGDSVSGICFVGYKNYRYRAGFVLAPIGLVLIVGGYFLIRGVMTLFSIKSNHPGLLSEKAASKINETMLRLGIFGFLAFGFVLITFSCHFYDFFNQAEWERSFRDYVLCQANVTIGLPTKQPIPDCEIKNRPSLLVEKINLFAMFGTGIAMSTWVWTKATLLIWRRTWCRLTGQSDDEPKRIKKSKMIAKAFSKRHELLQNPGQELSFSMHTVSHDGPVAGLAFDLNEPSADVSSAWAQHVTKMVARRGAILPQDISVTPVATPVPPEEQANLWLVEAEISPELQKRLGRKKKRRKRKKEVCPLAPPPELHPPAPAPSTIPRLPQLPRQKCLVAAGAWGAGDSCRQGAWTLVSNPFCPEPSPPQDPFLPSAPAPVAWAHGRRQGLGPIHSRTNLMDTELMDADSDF
T3 sequence (P08183 whole entry): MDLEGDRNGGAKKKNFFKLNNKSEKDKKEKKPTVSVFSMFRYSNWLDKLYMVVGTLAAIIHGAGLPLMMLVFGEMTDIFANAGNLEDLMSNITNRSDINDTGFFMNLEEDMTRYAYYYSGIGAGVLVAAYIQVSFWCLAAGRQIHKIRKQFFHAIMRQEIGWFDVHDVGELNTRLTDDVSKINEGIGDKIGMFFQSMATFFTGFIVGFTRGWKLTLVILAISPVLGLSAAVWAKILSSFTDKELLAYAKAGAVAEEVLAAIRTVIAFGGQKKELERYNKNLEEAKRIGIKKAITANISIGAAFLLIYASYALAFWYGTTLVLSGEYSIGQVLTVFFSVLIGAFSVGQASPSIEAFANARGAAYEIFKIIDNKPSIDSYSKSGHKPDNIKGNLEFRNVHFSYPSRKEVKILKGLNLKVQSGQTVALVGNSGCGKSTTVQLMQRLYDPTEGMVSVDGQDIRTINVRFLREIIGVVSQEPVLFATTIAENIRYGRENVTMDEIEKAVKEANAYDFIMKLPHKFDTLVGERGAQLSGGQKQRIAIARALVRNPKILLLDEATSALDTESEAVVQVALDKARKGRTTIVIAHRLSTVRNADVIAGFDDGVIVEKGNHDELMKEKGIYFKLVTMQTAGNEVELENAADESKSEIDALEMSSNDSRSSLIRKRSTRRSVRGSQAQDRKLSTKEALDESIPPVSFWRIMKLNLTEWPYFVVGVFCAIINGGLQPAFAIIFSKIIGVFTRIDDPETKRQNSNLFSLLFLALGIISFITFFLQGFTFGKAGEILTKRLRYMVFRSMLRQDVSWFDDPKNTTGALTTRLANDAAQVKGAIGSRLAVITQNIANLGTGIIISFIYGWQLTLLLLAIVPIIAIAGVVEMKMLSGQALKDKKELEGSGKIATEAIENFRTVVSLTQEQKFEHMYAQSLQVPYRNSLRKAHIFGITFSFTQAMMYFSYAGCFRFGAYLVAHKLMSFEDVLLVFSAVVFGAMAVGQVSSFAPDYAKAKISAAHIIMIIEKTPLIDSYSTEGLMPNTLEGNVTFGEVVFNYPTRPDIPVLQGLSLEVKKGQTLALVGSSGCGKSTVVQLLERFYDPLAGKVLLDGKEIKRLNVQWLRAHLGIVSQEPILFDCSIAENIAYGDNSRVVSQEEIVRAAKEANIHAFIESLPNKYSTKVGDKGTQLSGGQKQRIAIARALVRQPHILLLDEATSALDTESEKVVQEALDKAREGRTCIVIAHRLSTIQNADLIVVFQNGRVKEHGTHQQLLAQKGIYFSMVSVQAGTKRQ

CC1=C2C[C@H]3[C@@H](CC[C@@H]4C[C@H](NS(C)(=O)=O)CC[C@@]43C)[C@@H]2CC[C@@]2(C1)O[C@@H]1C[C@H](C)CN[C@H]1[C@H]2C [IPI-926]
stroma, tumor vascularization and effect of Gem chemotherapy (Smo): selective stromal elimination, better tumor vascularization, and greater effect of Gem chemotherapy

CCc1cc2c(c(OCC(F)(F)F)c(C(=O)NC3CCN(C(=O)CO)CC3)n2C)c(=O)n1CC(=O)c1ccccc1 [TAK-441, 6-ethyl-N-[1-(hydroxyacetyl)piperidin-4-yl]-1-methyl-4-oxo-5-(2-oxo-2-phenylethyl)-3-(2,2,2-triflurorethoxy)-4,5-dihydro-1H-pyrrolo[3,2-c]pyrdine-2-carboxamide]
TGI (%) day 21 (1 − [Tf − Ti]/[Cf − Ci]) (Panc163): 61% | TGI (%) day 21 (1 − [Tf − Ti]/[Cf − Ci]) (JH051): 15% | TGI (%) day 21 (1 − [Tf − Ti]/[Cf − Ci]) (Panc025): 42% | IC50 (human Smo (hSmo)): 8.6 nM | IC50 [1]: 4.4 nM | IC50 (Gli1 mRNA): 1.9 nM | Gli1 mRNA expression in tumor-associated stromal tissue ([2]; Ohashi et al.): suppressed | expression of Gli1 mRNA in vivo ([2]; medulloblastoma allograft, mouse tumor): dose-dependent inhibition | tumor activity ([2]; medulloblastoma allograft, p<0.025): significant dose-dependent tumor activity | tumor growth treatment/control ratio ([2]; mouse medulloblastoma allograft model): 3% | expression of Gli1 mRNA in vivo ([3]; stromal tumor associated): dose-dependent inhibition | tumor activity ([3]; p<0.025): significant dose-dependent tumor activity | tumor progression / paracrine Hh ligand signaling [4]: inhibit tumor progression | CL [5]: 2.688 mL/min/kg | distribution volume in steady state plasma (Vss) [5]: 0.6816 L/kg | t % [5]: 1.7 h | CL ([6]; dogs): 6.632 mL/min/kg | distribution volume in steady state plasma (Vss) ([6]; dogs): 2.1813 L/kg | t % ([6]; dogs): 9.8 h | increase of degree of absorption, fed versus fasting (Cmax and AUC0-24 h) ([6]; fed dogs compared with fasting dogs): approximately 2 times | binding to plasma proteins [7]: 99.7% | binding to plasma proteins [8]: 96.2% | binding to plasma proteins [9]: 79.6% | binding to plasma proteins [10]: 87.7% | CYP2C8 inhibition (CYP2C8): weak inhibitor | inhibitory effect on other CYP isozymes (CYP isozymes): no inhibitory effect | time-dependent inhibition of CYP isoenzyme (CYP isozymes; human liver microsomes): not a time-dependent inhibitor | Papp, A-to-B (Caco-2 cells): 19.6 '10-6 cm/sec | substrate for P-glycoprotein (P-gp) flow pump (P-glycoprotein (P-gp)): bad substrate | inhibition of human PDE4 phosphodiesterase [11]: 67% | inhibition of human dopamine transporter [12]: 75% | other findings of unknown relevance to humans [13]: gait alterations and tremors | toxicological changes [13, 16]: decreased body weight; atrophy of the growth plate in the ribs and hair follicles; erosion or ulceration of the gastric mucosa; anemia; necrosis and hypocellularity of the bone marrow as well as inflammation and hemorrhage in the lung | dose-limiting toxicities [14]: weight loss; decrease in food consumption; injuries of the gastrointestinal tract | toxicological changes [14, 16]: decreased body weight; atrophy of the growth plate in the ribs and hair follicles; erosion or ulceration of the gastric mucosa; anemia; necrosis and hypocellularity of the bone marrow as well as inflammation and hemorrhage in the lung | clinical response ([15]; a patient with basal cell carcinoma): partial response | mean Tmax ([15]; after a single dose): 1.8 to 4.2 h | mean Tmax ([15]; after several doses): 2.4 to 4.0 h | pharmacokinetics based on plasma concentration-time AUC ([15]; dose range 50-1600 mg): linear over the entire dose range | dose-limiting toxicities ([15]; patients): muscle spasms and fatigue | inhibition of Gli1 gene expression in skin biopsies ([15]; patients): observed with all doses analyzed | median elimination half-life ([15]; patients): 12.9 to 18.3 h | tolerability ([15]; patients): well-tolerated
